Target: T1, human S1P1 receptor (Homo sapiens, UniProt P21453)
T1 construct: expressed in transfected cells; membranes used
Experiment: GTP γ35S binding assay for S1P1 activity
Assay type: biochemical
Design: % stimulation: reference not given here
Details: for % stimulation: S1P1 receptor, agonist-induced; for EC50: membranes of cells stably expressing S1P1 receptor, agonist mode, 0.08 to 5,000 nM
Method: Novel compounds were synthesized and tested for S1P1 activity using the GTP γ^35S binding assay. These compounds may be assessed for their ability to activate or block activation of the human S1P1 receptor in cells stably expressing the S1P1 receptor. GTP γ^35S binding was measured in the medium containing (mM) HEPES 25, pH 7.4, MgCl2 10, NaCl 100, dithiothreitol 0.5, digitonin 0.003%, 0.2 nM GTP γ^35S, and 5 μg membrane protein in a volume of 150 μl. Test compounds were included in the concentration range from 0.08 to 5,000 nM unless indicated otherwise. Membranes were incubated with 100 μM 5′-adenylylimmidodiphosphate for 30 min, and subsequently with 10 μM GDP for 10 min on ice. Drug solutions and membrane were mixed, and then reactions were initiated by adding GTP γ^35S and continued for 30 min at 25° C. Reaction mixtures were filtered over Whatman GF/B filters under vacuum, and washed three times with 3 mL of ice-cold buffer (HEPES 25, pH 7.4, MgCl2 10 and NaCl 100). Filters were dried and mixed with scintillant, and counted for ^35S activity using a β-counter. Agonist-induced GTP γ^35S binding was obtained by subtracting that in the absence of agonist. In case of antagonist assay, the reaction mixture contained 10 nM S1P in the presence of test antagonist at concentrations ranging from 0.08 to 5000 nM.

T1 sequence (P21453 whole entry): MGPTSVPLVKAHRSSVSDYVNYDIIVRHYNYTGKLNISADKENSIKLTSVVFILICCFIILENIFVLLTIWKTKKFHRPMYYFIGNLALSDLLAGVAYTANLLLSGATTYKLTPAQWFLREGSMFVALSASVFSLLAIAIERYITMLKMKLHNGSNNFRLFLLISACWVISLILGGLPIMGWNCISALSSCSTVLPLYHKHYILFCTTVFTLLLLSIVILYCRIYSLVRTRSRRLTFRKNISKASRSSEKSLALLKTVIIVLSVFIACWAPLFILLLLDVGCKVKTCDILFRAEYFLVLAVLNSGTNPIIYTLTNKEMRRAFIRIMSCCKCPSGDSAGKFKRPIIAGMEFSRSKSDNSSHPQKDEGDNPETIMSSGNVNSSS

Row | Structure (SMILES) | % stimulation | EC50
1 | CC(C)Oc1ccc(C#Cc2ccc(Cn3ccnc3)cc2)cc1C#N [Compound 1, 5-{[4-(1H-imidazol-1-ylmethyl)phenyl]ethynyl}-2-isopropoxybenzonitrile] | 67% | 6.3 nM
2 | CC(C)Oc1ccc(C#Cc2ccc(CN3CCCC3)cc2)cc1C#N [Compound 2, 2-isopropoxy-5-{[4-(pyrrolidin-1-ylmethyl)phenyl]ethynyl}benzonitrile] | 110% | 365 nM
3 | CC(C)Oc1ccc(C#Cc2ccc(Cn3ccnc3)cc2)cc1Cl [Compound 3, 1-{4-[(3-chloro-4-isopropoxyphenyl)ethynyl]-benzyl}-1H-imidazole] | 81% | 14.7 nM
4 | Cc1cc(Cn2ccnc2)ccc1C#Cc1ccc(OC(C)C)c(C#N)c1 [Compound 4, 5-{[4-(1H-imidazol-1-ylmethyl)-2-methylphenyl]ethynyl}-2-isopropoxybenzonitrile] | 70% | 3.1 nM
5 | CC(C)Oc1ccc(C#Cc2ccc(Cn3ccnc3)cc2Cl)cc1C#N [Compound 5, 5-{[2-chloro-4-(1H-imidazol-1-ylmethyl)phenyl]ethynyl}-2-isopropoxybenzonitrile] | 108% | 7.52 nM
